Results published in the supplement of paper PMC10307832.

What was measured:
Test in all cases: relative viability (nuclei count vs DMSO), 5 days (fraction); higher = more cells survive
Motesanib = compound: CC1(C)CNc2cc(NC(=O)c3cccnc3NCc3ccncc3)ccc21 [Motesanib]
Outline: (§1)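 Five library-drug doses, separated by factors of √10, were pinned into 1536-well plates holding lung cancer cell lines after an overnight stay at 37 °C. Cells were fixed, permeabilised and Hoechst-stained in one step after 5 days without medium change, then imaged at 4×. Viability compares treated-well with vehicle-well nuclei, counted in MetaXpress, as a median across plates. Passing plates had control CV below 25% and at least one doubling.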

[1] = compound: C[C@@]1(C(=O)Nc2ccc(F)nc2)CCCN1c1nc(Nc2cc(C3CC3)n[nH]2)c2cccn2n1
Outline: as §1

Motesanib + Trametinib = compound: CC1(C)CNc2cc(NC(=O)c3cccnc3NCc3ccncc3)ccc21 [Motesanib] + CC(=O)Nc1cccc(-n2c(=O)n(C3CC3)c(=O)c3c(Nc4ccc(I)cc4F)n(C)c(=O)c(C)c32)c1 [Trametinib] (partner 0.02 µM)
Outline: (§2)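 Dosing by pin tool came one day after lung cancer cell lines were seeded in 1536-well plates, using either one drug or a fixed anchor-drug dose plus five library-drug doses (not always all listed) in √10 steps. After 5 days, nuclei were counted on 4× images. Relative viability is treated-well nuclei count divided by vehicle-well nuclei count, and values are medians of duplicate plates.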

[2] = compound: C[C@@]1(C(=O)Nc2ccc(F)nc2)CCCN1c1nc(Nc2cc(C3CC3)n[nH]2)c2cccn2n1 + CC1(C)CCC(c2ccc(Cl)cc2)=C(CN2CCN(c3ccc(C(=O)NS(=O)(=O)c4ccc(N[C@H](CCN5CCOCC5)CSc5ccccc5)c(S(=O)(=O)C(F)(F)F)c4)cc3)CC2)C1 [Navitoclax] (partner 0.5 µM)
Outline: as §2

Cell Line	relative viability (Motesanib; 0.01 µM)	relative viability (Motesanib; 0.03162 µM)	relative viability (Motesanib; 0.1 µM)	relative viability (Motesanib; 0.3162 µM)	relative viability (Motesanib; 1 µM)	relative viability ([1]; 0.04 µM)	relative viability ([1]; 0.1265 µM)	relative viability ([1]; 0.4 µM)	relative viability ([1]; 1.265 µM)	relative viability (Motesanib + Trametinib; first compound 0.01 µM)	relative viability (Motesanib + Trametinib; first compound 0.03162 µM)	relative viability (Motesanib + Trametinib; first compound 0.1 µM)	relative viability (Motesanib + Trametinib; first compound 0.3162 µM)	relative viability (Motesanib + Trametinib; first compound 1 µM)	relative viability ([2]; first compound 0.04 µM)	relative viability ([2]; first compound 0.1265 µM)	relative viability ([2]; first compound 0.4 µM)	relative viability ([2]; first compound 1.265 µM)
NCI-H1975	0.876	0.914	0.996	0.995	0.98	0.943	0.981	0.649	0.754	0.335	0.359	0.316	0.38	0.339	0.988	1.06	0.773	0.765
NCI-H1944	0.946	0.961	0.914	1.05	0.989	0.768	0.75	0.63	0.663	0.438	0.442	0.408	0.455	0.384	0.991	0.947	0.981	1.08
LU99A	0.911	1.03	0.905	1.02	0.98	0.72	0.645	0.6	0.381	0.302	0.596	0.548	0.539	0.583	0.652	0.71	0.491	0.574
SW 1573	0.998	0.894	0.977	1.05	1.15	0.824	0.762	0.697	0.672	0.613	0.503	0.721	0.593	0.628	0.875	0.471	0.655	0.8
NCI-H2347	1.01	1.04	1.15	0.983	1.04	1.03	0.922	0.908	0.967	0.264	0.3	0.292	0.245	0.278	0.777	0.544	0.661	0.846
NCI-H2009	1.02	0.993	1.08	1.02	0.964	1.06	1.03	0.936	1	0.244	0.316	0.273	0.291	0.289	1.26	1.23	1.11	1.29
HCC-15	0.955	0.972	0.896	1.16	1.01	0.85	0.667	0.727	0.764	0.377	0.335	0.364	0.406	0.376	0.663	0.561	0.528	0.58
HCC-44	0.978	0.957	1.02	1.04	0.989	0.99	0.904	0.716	0.737	1.01	1.06	1.05	1.12	1.19	0.804	0.884	0.68	0.903
COR-L23	1.01	0.962	1.03	1.04	1.07	1.13	0.985	0.886	0.774	0.352	0.654	0.602	0.708	0.74	1.02	1.06	0.821	0.681
HCC-78	0.891	0.957	0.957	0.92	1.03	0.968	0.686	0.496	0.44	0.653	0.671	0.701	–	0.735	0.7	0.505	0.308	0.268
NCI-H727	0.83	1	0.9	0.974	0.849	0.677	0.38	0.36	0.414	0.381	0.363	0.385	0.379	0.354	0.175	0.185	0.106	0.14
NCI-H2087	1.14	0.887	1.06	1.25	1.37	0.954	0.815	0.868	0.819	–	–	0.199	0.182	0.182	0.882	0.969	0.854	0.931
BEN	0.902	0.964	0.927	0.998	1.19	1.09	0.959	0.935	0.929	0.996	1.01	0.983	1.01	1.1	0.0599	0.0547	0.0804	0.0539
EKVX	0.919	1	1.01	0.928	1.08	0.963	0.762	0.733	0.815	0.303	0.414	0.344	0.459	0.522	0.944	0.728	0.785	0.593
LXF-289	0.991	0.999	1.02	1.15	1.03	1.03	0.978	0.997	1.03	0.624	0.684	0.689	0.728	0.704	0.987	0.917	0.941	0.991
NCI-H1650	1.03	0.792	1.06	0.947	0.927	0.894	0.843	0.798	0.699	0.684	0.531	0.636	0.547	0.623	0.955	1.14	0.955	1.08
NCI-H2085	1.02	0.993	0.981	1.06	1.01	1.07	0.952	0.942	0.955	0.513	0.537	0.521	0.535	0.526	1.22	1.07	0.984	1.05
NCI-H1793	0.865	1.02	0.867	0.963	0.967	0.974	0.738	0.67	1.04	0.375	0.362	0.513	0.409	0.523	0.31	0.304	0.378	0.351
